Source: publication PMC4488857 (PLoS ONE, 2015)
Each block holds one molecule with its values, some of them ahead of it.

Experiments:
[1] = target: T1, multidrug resistance-associated protein 2 (MRP2) (Homo sapiens, UniProt Q92887); experiment: inhibition of ATP-dependent platinum uptake (oxaliplatin […]) in MRP2-expressing membrane vesicles, ICPMS; […] reduction at […]; assay type: cell-based; design: gene ABCC2; human MRP2 in inside-out Sf9 membrane vesicles
[2] = target: T1, multidrug resistance-associated protein 2 (MRP2); experiment: inhibition of ATP-dependent platinum uptake (oxaliplatin […]) in MRP2-expressing membrane vesicles, ICPMS; assay type: biochemical; design: gene ABCC2; human MRP2 in inside-out Sf9 membrane vesicles
[3] = target: T1, multidrug resistance-associated protein 2 (MRP2); design: gene ABCC2

T1 sequence (Q92887 whole entry): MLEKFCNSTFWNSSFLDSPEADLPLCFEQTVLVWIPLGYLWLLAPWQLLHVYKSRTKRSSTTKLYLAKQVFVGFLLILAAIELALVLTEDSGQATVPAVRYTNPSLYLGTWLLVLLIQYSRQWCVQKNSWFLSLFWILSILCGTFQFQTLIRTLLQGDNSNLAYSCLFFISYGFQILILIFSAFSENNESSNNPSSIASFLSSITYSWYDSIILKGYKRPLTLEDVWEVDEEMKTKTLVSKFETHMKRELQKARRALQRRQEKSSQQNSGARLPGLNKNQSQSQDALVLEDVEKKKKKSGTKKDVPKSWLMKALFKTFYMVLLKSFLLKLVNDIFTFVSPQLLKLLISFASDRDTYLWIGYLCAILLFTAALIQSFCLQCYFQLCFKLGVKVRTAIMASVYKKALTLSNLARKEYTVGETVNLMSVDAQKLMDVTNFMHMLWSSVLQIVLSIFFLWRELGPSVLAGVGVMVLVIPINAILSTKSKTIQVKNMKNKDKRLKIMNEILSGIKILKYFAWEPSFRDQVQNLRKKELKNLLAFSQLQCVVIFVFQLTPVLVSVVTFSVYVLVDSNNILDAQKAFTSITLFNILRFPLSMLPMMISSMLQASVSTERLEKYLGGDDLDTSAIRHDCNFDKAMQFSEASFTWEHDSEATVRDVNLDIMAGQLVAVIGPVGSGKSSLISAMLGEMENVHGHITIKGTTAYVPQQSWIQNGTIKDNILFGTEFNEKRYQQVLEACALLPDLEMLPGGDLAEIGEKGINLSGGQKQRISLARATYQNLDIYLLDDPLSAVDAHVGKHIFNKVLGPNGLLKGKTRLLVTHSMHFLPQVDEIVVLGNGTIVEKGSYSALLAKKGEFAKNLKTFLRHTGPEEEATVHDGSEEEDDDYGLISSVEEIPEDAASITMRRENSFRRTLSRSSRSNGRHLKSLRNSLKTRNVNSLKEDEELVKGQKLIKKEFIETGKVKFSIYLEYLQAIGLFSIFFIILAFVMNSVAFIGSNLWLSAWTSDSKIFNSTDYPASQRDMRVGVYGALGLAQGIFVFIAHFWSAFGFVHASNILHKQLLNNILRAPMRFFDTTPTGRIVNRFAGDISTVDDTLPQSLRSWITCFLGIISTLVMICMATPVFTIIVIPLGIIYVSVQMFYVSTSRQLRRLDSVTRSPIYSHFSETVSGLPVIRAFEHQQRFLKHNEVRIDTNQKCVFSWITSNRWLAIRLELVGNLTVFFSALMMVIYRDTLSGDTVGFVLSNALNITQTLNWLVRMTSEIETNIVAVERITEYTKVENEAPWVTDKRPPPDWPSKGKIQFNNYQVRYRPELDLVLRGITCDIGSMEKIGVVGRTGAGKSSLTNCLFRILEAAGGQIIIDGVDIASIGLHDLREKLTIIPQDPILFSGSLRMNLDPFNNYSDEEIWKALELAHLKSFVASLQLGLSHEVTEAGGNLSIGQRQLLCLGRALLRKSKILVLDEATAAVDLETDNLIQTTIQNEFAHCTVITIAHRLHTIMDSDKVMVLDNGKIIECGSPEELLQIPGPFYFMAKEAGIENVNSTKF

inhibition at 100 µM [1]: 96%
Compound: CN(C)C(=O)CCSC(SCCC(=O)O)c1cccc(/C=C/c2ccc3ccc(Cl)cc3n2)c1 (stereo not drawn) [MK571]

Compound: O=c1c(O)c(-c2cc(O)c(O)c(O)c2)oc2cc(O)cc(O)c12 [myricetin]
IC50 [2]: 10 to 100 µM

Compound: O=C1[O][Pt]2([NH][C@@H]3CCCC[C@H]3[NH]2)[O]C1=O [oxaliplatin]
Km [3]: 301 µM
